From patent publication US20130104445A1, “ESSENTIAL OILS AND THEIR COMPOUNDS AS STINK BUG REPELLENTS” (priority 2011, published 2013)

Test system: BMSB adult or nymph antenna
Experiment: GC-EAD antennal responses to essential oil headspace (SPME) or synthetic SSB pheromone mixture
Design: species or system Halyomorpha halys
Procedure: Headspace volatiles from several essential oils (1 ml each in a closed 20 ml glass vial) were sampled via Solid-Phase Micro-Extraction (SPME) (CAR/PDMS, 85 μm, Supelco, Bellefonte, Pa.) for 30 sec before GC-EAD and GC-MS analyses.
BMSB nymphs and adults for electrophysiological study were taken from a lab colony originally collected from Pennsylvania, U.S.A., during the overwintering period.
SPME samples of the various essential oils were injected splitless into a Varian CP-3800 GC equipped with a polar column (HP-INNOWAX; 30 m×0.53 mm×1.0 μm film thickness; Agilent Technologies, Wilmington, Del., USA) and a 1:1 effluent splitter that allowed simultaneous flame ionization detection (FID) and electroantennographic detection (EAD) of BMSB adult or nymph antenna to the separated volatile compounds. Helium was used as the carrier gas, and the injector and detector temperatures were 250° C. and 300° C., respectively. Column temperature was 50° C. for 1 min, rising to 240° C. at 10° C./min, and then held for 10 min. The outlet for the EAD was held in a humidified air stream flowing at 0.5 m/sec over the antennal preparation. EAD recordings were made using silver wire-glass capillary electrodes filled with Beadle-Ephrussi Ringer on freshly cut antennae. The antennal signals were stored and analyzed on a PC equipped with a serial IDAC interface box and the program EAD ver. 2.5 (Syntech, Hilversum, The Netherlands). The same GC-EAD recording procedure was also employed on the BMSB antennae against a synthetic mixture of the Spined soldier bug aggregation pheromone components (trans-2-hexenal, benzyl alcohol, and α-terpineol; 200 ng/μl each in hexane, 2 μl injected).
Antennally active compounds (FID peaks) in the SPME samples of essential oils were identified by GC-MS on an HP 6890 GC series coupled with an HP 5973 Mass Selective Detector using the same type of GC column and conditions as described above. Compounds were identified by comparison of retention times with those of authentic standards and with mass spectra of standards.

[1] = from the lemongrass oil, FIG. 4
[2] = synthetic mixture of SSB aggregation pheromone components, FIG. 12

## CC12CCC(CC1)C(C)(C)O2 [1,8-cineole]
From rosemary oil, FIG. 8
  EAD response of BMSB antennae: significant (strongly or weakly) EAD-responses

## COc1ccc(C)cc1 [4-methylanisole]
From ylang ylang oil, FIG. 7
  EAD response of BMSB antennae: significant (strongly or weakly) EAD-responses

## CCCCCC(=O)CCC [4-nonanone]
[1]
  EAD response of BMSB antennae: weakly

## CC(C)=CCC/C(C)=C/C=O [E-citral]
[1]
  EAD response of BMSB antennae: strongly responded

## CC(C)=CCC/C(C)=C\C=O [Z-citral]
[1]
  EAD response of BMSB antennae: strongly responded

## CC(=O)OCc1ccccc1 [benzyl acetate]
From ylang ylang oil, FIG. 7
  EAD response of BMSB antennae: significant (strongly or weakly) EAD-responses

## OCc1ccccc1 [benzyl alcohol]
[2]
  EAD response of BMSB antennae: strong antennal responses

## CC12CCC(CC1=O)C2(C)C (stereo not drawn) [camphor]
From rosemary oil, FIG. 8
  EAD response of BMSB antennae: significant (strongly or weakly) EAD-responses

## C=CCc1ccc(O)c(OC)c1 [eugenol]
From clove oil, FIG. 6
  EAD response of BMSB antennae: significant (strongly or weakly) EAD-responses

## CC(C)=CCC/C(C)=C/CO [geraniol]
From geranium oil, FIG. 10
  EAD response of BMSB antennae: significant (strongly or weakly) EAD-responses

## COC(=O)c1ccccc1 [methyl benzoate]
From ylang ylang oil, FIG. 7
  EAD response of BMSB antennae: significant (strongly or weakly) EAD-responses

## COC(=O)c1ccccc1O [methyl salicylate]
From wintergreen oil, FIG. 9
  EAD response of BMSB antennae: significant (strongly or weakly) EAD-responses

## CC(C)=C1CC[C@@H](C)CC1=O [pulegone]
From pennyroyal oil, FIG. 11
  EAD response of BMSB antennae: significant (strongly or weakly) EAD-responses

## CCC/C=C/C=O [trans-2-hexenal]
[2]
  EAD response of BMSB antennae: strong antennal responses

## CC1=CCC(C(C)(C)O)CC1 (stereo not drawn) [α-terpineol]
[2]
  EAD response of BMSB antennae: weak activity

## C=C1CC[C@@H]2[C@H]1[C@H]1[C@H](C(C)C)CC[C@]12C [β-bourbernene]
From geranium oil, FIG. 10
  EAD response of BMSB antennae: significant (strongly or weakly) EAD-responses

## CC(C)=CCCC(C)CCO (stereo not drawn) [β-citronellol]
From geranium oil, FIG. 10
  EAD response of BMSB antennae: significant (strongly or weakly) EAD-responses

## P/I-menthones
From geranium oil, FIG. 10
  EAD response of BMSB antennae: significant (strongly or weakly) EAD-responses
From pennyroyal oil, FIG. 11
  EAD response of BMSB antennae: significant (strongly or weakly) EAD-responses

## cis/trans-rose oxides
From geranium oil, FIG. 10
  EAD response of BMSB antennae: significant (strongly or weakly) EAD-responses

## l-carvone
From spearmint oil, FIG. 5
  EAD response of BMSB antennae: significant (strongly or weakly) EAD-responses
